The source of these data is patent publication US20260042764A1, “COMPOSITIONS AND METHODS FOR INHIBITION OF KRAS” (TheRas, Inc., priority 2022, published 2026).

Test [1] has as its system SW620 cells (KRAS G12V). Briefly: Cell-based pERK HTRF assay in SW620 cell (Biological Example 4). The settings on record: Homo sapiens, SW-620, SW620 (KRAS G12V) cells, pERK HTRF; class symbols. In short, it runs like this:
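In SW620 cells grown in RPMI with 10% FBS, a 4 h compound treatment (0.25% DMSO, 9-point curve from 1 μM) preceded lysis. Phospho-ERK levels were then read by time-resolved FRET at 615 nm emission.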
For orientation: Time-resolved FRET reads energy transfer from a long-lived donor to a nearby acceptor.

The test system of test [2] is GP2d cells (KRAS G12D). The test can be described thus: Cell-based pERK HTRF assay in GP2d cell (Biological Example 2). Particulars: GP2d, GP2d (KRAS G12D) cells, pERK HTRF; class symbols. In short, it runs like this:
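Phospho-ERK is measured by HTRF following a 60 min compound exposure at 0.25% DMSO, with a 9-point half-log curve topping at 1 μM or 100 nM.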

Test [3] concerns the target T1, Avi-KRAS WT (1-169) GppNHp/RAF1 RBD-3xFLAG (52-151) (Homo sapiens, UniProt P01116).
T1 construct: Avi-KRAS WT (1-169)
Briefly: Raf1-KRAS WT-GppNHP disruption HTRF assay (Biological Example 1). In kind it is binding. The settings on record: KRAS WT, GppNHp-loaded; class symbols. In short, it runs like this:
(§1)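 HTRF PPI disruption; buffer 50 mM Tris pH 7.5, 100 mM NaCl, 5 mM MgCl2, 0.1% BSA, 0.01% Tween, 10% DMSO. Protein mix 1 h RT shaking, reagent mix 1 h RT shaking. Data as % activity vs DMSO (100%).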

Test [4] deals with T2, Avi-KRAS G12R (1-169) GppNHp/RAF1 RBD-3xFLAG (52-151) (Homo sapiens, UniProt P01116, G12R).
T2 construct: Avi-KRAS G12R (1-169)
Briefly: Raf1-KRAS G12R-GppNHP disruption HTRF assay (Biological Example 1). The settings on record: KRAS G12R, GppNHp-loaded; class symbols. The test is classed as binding. In a few lines: as §1

The target in test [5] is T3, Avi-KRAS G12D (1-169) GppNHp/RAF1 RBD-3xFLAG (52-151) (Homo sapiens, UniProt P01116, G12D).
T3 construct: Avi-KRAS G12D (1-169)
The test can be described thus: Raf1-KRAS G12D-GppNHP disruption HTRF assay (Biological Example 1). In kind it is binding. Particulars: KRAS G12D, GppNHp-loaded; class symbols. In short, it runs like this: as §1

Test [6] has as its target T4, Avi-KRAS G12V (1-169) GppNHp/RAF1 RBD-3xFLAG (52-151) (Homo sapiens, UniProt P01116, G12V).
T4 construct: Avi-KRAS G12V (1-169)
Briefly: Raf1-KRAS G12V-GppNHP disruption HTRF assay (Biological Example 1). The test is classed as binding. Particulars: KRAS G12V, GppNHp-loaded; class symbols. In a few lines:
as §1

SMILES strings stand for the structures.

T1 sequence (P01116 1-169 isoform P01116-2): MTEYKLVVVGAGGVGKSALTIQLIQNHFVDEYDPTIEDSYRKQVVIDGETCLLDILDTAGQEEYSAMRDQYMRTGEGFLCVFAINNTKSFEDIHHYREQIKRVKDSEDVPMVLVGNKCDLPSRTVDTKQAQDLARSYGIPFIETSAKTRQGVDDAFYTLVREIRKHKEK
T2 sequence (P01116 1-169 isoform P01116-2 G12R): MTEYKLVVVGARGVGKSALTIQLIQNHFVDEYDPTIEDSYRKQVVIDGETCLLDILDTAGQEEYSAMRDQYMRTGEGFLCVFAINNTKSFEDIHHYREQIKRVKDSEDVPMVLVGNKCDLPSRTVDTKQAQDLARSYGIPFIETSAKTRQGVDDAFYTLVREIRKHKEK
T4 sequence (P01116 1-169 isoform P01116-2 G12V): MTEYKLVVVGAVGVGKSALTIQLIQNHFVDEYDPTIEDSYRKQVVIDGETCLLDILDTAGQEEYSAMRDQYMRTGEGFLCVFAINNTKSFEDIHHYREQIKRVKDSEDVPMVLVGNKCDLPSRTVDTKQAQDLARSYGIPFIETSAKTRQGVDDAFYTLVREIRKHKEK
T3 sequence (P01116 1-169 isoform P01116-2 G12D): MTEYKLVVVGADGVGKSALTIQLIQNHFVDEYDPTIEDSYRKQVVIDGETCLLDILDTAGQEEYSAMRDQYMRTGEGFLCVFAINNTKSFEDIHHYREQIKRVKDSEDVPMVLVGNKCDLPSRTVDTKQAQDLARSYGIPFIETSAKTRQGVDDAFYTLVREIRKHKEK

For orientation: IC50 means the concentration at which inhibition is half-maximal. Read a high IC50 as weaker potency in that assay. Turning to `CCN(c1nc(OC[C@@]23CCCN2C[C@H](F)C3)nc2c(F)c(-c3ccc(F)c4sc(N)c(C#N)c34)c(C(F)(F)F)cc12)[C@H]1CCN(C(=O)[C@@H]2CC23CC3)C1` (atropisomer, axis not shown) [Compound 774], the IC50 in test [1] is less than 100 nM; in test [2] it was less than 100 nM; in test [3] it was 100 to 1000 nM; in test [4], 100 to 1000 nM; in test [5], 100 to 1000 nM; in test [6] it was 100 to 1000 nM.

On to `CCN(c1nc(OC[C@@]23CCCN2C[C@H](F)C3)nc2c(F)c(-c3ccc(F)c4sc(N)c(C#N)c34)c(C(F)(F)F)cc12)[C@H]1C[C@H]2CN(C3CC3)C(=O)N2C1` (atropisomer, axis not shown) [Compound 775], for which the IC50 in test [1], in test [2], in test [3], in test [4], in test [5] and in test [6] was less than 100 nM throughout.

Turning to `CCN(c1nc(OC[C@@]23CCCN2C[C@H](F)C3)nc2c(F)c(-c3ccc(F)c4sc(N)c(C#N)c34)c(C(F)(F)F)cc12)[C@H]1CCN(C(=O)N2CC(C#N)C2)C1` (atropisomer, axis not shown) [Compound 778], the IC50 in test [1], in test [2], in test [3], in test [4], in test [5] and in test [6] was less than 100 nM each time.

As for `N#Cc1c(N)sc2c(F)ccc(-c3c(C(F)(F)F)cc4c(N(C5CC5)[C@H]5CCN(C(=O)[C@@H]6CC6(F)F)C5)nc(OC[C@@]56CCCN5C[C@H](F)C6)nc4c3F)c12` (atropisomer, axis not shown) [Compound 779], the IC50 was less than 100 nM in test [1]; less than 100 nM in test [2]; 100 to 1000 nM in test [3]; 100 to 1000 nM in test [4]; less than 100 nM in test [5]; 100 to 1000 nM in test [6].

`CCN(c1nc(OC[C@@]23CCCN2C[C@H](F)C3)nc2c(F)c(-c3ccc(F)c4sc(N)c(C#N)c34)c(C(F)(F)F)cc12)[C@H]1CCN(C(=O)N2CC(F)C2)[C@@H]1C` (atropisomer, axis not shown) [Compound 780]: the IC50 in test [1], in test [2], in test [3], in test [4], in test [5] and in test [6] was less than 100 nM in each case.

Take `CCN(c1nc(OC[C@@]23CCCN2C[C@H](F)C3)nc2c(F)c(-c3ccc(F)c4sc(N)c(C#N)c34)c(C(F)(F)F)cc12)[C@H]1CCN(C(=O)[C@H](C)OC)[C@@H]1C` (atropisomer, axis not shown) [Compound 781]: the IC50 in test [1] was less than 100 nM; in test [2], less than 100 nM; in test [3], less than 100 nM; in test [4], less than 100 nM; in test [5], less than 100 nM; in test [6], 100 to 1000 nM.

As to `CCN(c1nc(OC[C@@]23CCCN2C[C@H](F)C3)nc2c(F)c(-c3ccc(F)c4sc(N)c(C#N)c34)c(C(F)(F)F)cc12)[C@H]1C[C@@H](C)N(C(=O)N2CC(F)C2)C1` (atropisomer, axis not shown) [Compound 782], the IC50 was less than 100 nM in test [1]; less than 100 nM in test [2]; 100 to 1000 nM in test [3]; 100 to 1000 nM in test [4]; 100 to 1000 nM in test [5]; 100 to 1000 nM in test [6].

Regarding `CCN(c1nc(OC[C@@]23CCCN2C[C@H](F)C3)nc2c(F)c(-c3ccc(F)c4sc(N)c(C#N)c34)c(C(F)(F)F)cc12)[C@H]1C[C@@H](C)N(C(=O)c2ccon2)C1` (atropisomer, axis not shown) [Compound 783], the IC50 is less than 100 nM in test [1]; less than 100 nM in test [2]; 100 to 1000 nM in test [3]; 100 to 1000 nM in test [4]; 100 to 1000 nM in test [5]; 100 to 1000 nM in test [6].

For the compound `CCN(c1nc(OC[C@@]23CCCN2C[C@H](F)C3)nc2c(F)c(-c3ccc(F)c4sc(N)c(C#N)c34)c(C(F)(F)F)cc12)[C@H]1C[C@H]2CN(C(C)C)C(=O)N2C1` (atropisomer, axis not shown) [Compound 784], the IC50 in test [1] is less than 100 nM; in test [2], less than 100 nM; in test [3], less than 100 nM; in test [4], less than 100 nM; in test [5], less than 100 nM; in test [6] it was 100 to 1000 nM.

With `CN(c1nc(OC[C@@]23CCCN2C[C@H](F)C3)nc2c(F)c(-c3ccc(F)c4sc(N)c(C#N)c34)c(C(F)(F)F)cc12)[C@H]1CCN(C(=O)[C@@H]2CC2(F)F)C1` (atropisomer, axis not shown) [Compound 785], the IC50 in test [1] was less than 100 nM; in test [2], less than 100 nM; in test [3], 100 to 1000 nM; in test [4], 100 to 1000 nM; in test [5], less than 100 nM; in test [6], 100 to 1000 nM.

As for `CC(C)C(=O)N1CC[C@H](N(C)c2nc(OC[C@@]34CCCN3C[C@H](F)C4)nc3c(F)c(-c4ccc(F)c5sc(N)c(C#N)c45)c(C(F)(F)F)cc23)C1` (atropisomer, axis not shown) [Compound 786], the IC50 in test [1] was less than 100 nM; in test [2], less than 100 nM; in test [3], 100 to 1000 nM; in test [4], less than 100 nM; in test [5], less than 100 nM; in test [6], 100 to 1000 nM.

Consider `CCN(c1nc(OC[C@@]23CCCN2C[C@H](F)C3)nc2c(F)c(-c3ccc(F)c4sc(N)c(C#N)c34)c(C(F)(F)F)cc12)[C@@H]1CCN(C(=O)[C@H]2CCO2)[C@@H]1C` (atropisomer, axis not shown) [Compound 788], for which the IC50 in test [1], in test [2], in test [3], in test [4], in test [5] and in test [6] was less than 100 nM throughout.

As to `CCN(c1nc(OC[C@@]23CCCN2C[C@H](F)C3)nc2c(F)c(-c3ccc(F)c4sc(N)c(C#N)c34)c(C(F)(F)F)cc12)[C@@H]1CCN(C(=O)[C@H](C)OC)[C@@H]1C` (atropisomer, axis not shown) [Compound 789], the IC50 in test [1] was less than 100 nM; in test [2], less than 100 nM; in test [3] it was less than 100 nM; in test [4] it was less than 100 nM; in test [5], less than 100 nM; in test [6], 100 to 1000 nM.

As for `CCN(c1nc(OC[C@@]23CCCN2C[C@H](F)C3)nc2c(F)c(-c3ccc(F)c4sc(N)c(C#N)c34)c(C(F)(F)F)cc12)[C@H]1CCN(C(=O)[C@H](C)CF)C1` (atropisomer, axis not shown) [Compound 790], the IC50 is less than 100 nM in test [1]; less than 100 nM in test [2]; less than 100 nM in test [3]; less than 100 nM in test [4]; less than 100 nM in test [5]; 100 to 1000 nM in test [6].

In the case of `CCN(c1nc(OC[C@@]23CCCN2C[C@H](F)C3)nc2c(F)c(-c3ccc(F)c4sc(N)c(C#N)c34)c(C(F)(F)F)cc12)[C@H]1CCN(C(=O)N2CC3(CC3)C2)C1` (atropisomer, axis not shown) [Compound 793], the IC50 in test [1], in test [2], in test [3], in test [4], in test [5] and in test [6] was less than 100 nM each time.

With `CCN(c1nc(OC[C@@]23CCCN2C[C@H](F)C3)nc2c(F)c(-c3ccc(F)c4sc(N)c(C#N)c34)c(C(F)(F)F)cc12)[C@H]1CCN(C(=O)N2CC(OC(F)F)C2)C1` (atropisomer, axis not shown) [Compound 794], the IC50 in test [1], in test [2], in test [3], in test [4], in test [5] and in test [6] was less than 100 nM in each case.

For the compound `CCN(c1nc(OC[C@@]23CCCN2C[C@H](F)C3)nc2c(F)c(-c3ccc(F)c4sc(N)c(C#N)c34)c(C(F)(F)F)cc12)[C@@H]1CN2C(=O)OC[C@]2(C)C1` (atropisomer, axis not shown) [Compound 795], the IC50 in test [1], in test [2], in test [3], in test [4], in test [5] and in test [6] was less than 100 nM throughout.
